According to patent US6348445B1, “Biologically active peptides with reduced toxicity in animals and a method for preparing same” (priority 1992, dated 2002):
Where two headings read alike, the source gives them in different places. *1 amine or outer side, *2 acyl side, *3 side chain or, on linkers, in order; H or OH if unused. Where a SMILES comes first, the peptide text is derived from it. Where no end group is shown, it is not given here. [ ]: non-standard residue; d: D form. The star is where a group is joined. hArg = N=C(N)NCCCC[C@H](N)C(=O)O; Suc = O=C(CCC(=O)[*:2])[*:1]; Octanoyl = CCCCCCCC(=O)*; Orn = NCCC[C@H](N)C(=O)O; Pentanoyl = CCCCC(=O)*

How the values were obtained:
[1] = test system: P. gingivalis; conditions: anaerobic, 24-48 hours
[2] = test system: E. coli ATCC strain 25922; test: Minimal Inhibitory Concentration, microtiter broth dilution; assay type: cell-based; conditions: ATCC strain 25922
How it was run: (§1)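 Peptides serially diluted 1:2 to final 0.25–256 μg/ml in Mueller Hinton broth, inoculated with 1-5×10^5 CFUs/ml from mid-log culture. Incubated 16-20 hours at 37° C. MIC = lowest peptide concentration giving a clear well.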

[3] = test system: P. aeruginosa strain ATCC 27853; assay type: cell-based
How it was run: as §1

[4] = test system: S. mutans; test: anaerobic anti-microbial susceptibility test (MIC); assay type: cell-based; parameters: unit not given here; conditions: 24-48 hours
[5] = test system: C. albicans; assay type: cell-based
How it was run: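 Peptides serially diluted 1:2 to final 0.25–256 μg/ml; inoculum 1-5×10^5 CFU/ml from mid-log culture in full-strength Mueller Hinton broth. Incubated 16-20 h at 37° C. MIC taken as lowest peptide concentration giving a clear well.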

[6] = test system: A. viscosus; test: anaerobic anti-microbial susceptibility test (MIC); assay type: cell-based; conditions: 24-48 hours

Compound | MIC P. gingivalis (strain) 9-14K-1 [1] | MIC P. gingivalis (strain) 381 [1] [μl/ml] | MIC P. gingivalis (strain) 450 [1] [μl/ml] | MIC P. gingivalis (strain) A7A1-28 [1] [μl/ml] | MIC P. gingivalis (strain) FAY-19M-1 [1] | Minimal Inhibitory Concentration E [2] [µg/mL] | Minimal Inhibitory Concentration P ([3]; ATCC 27853) [µg/mL] | MIC S. mutans [4] | Minimal Inhibitory Concentration CA [5] [µg/mL] | MIC A. viscos [6] [μl/ml] | Minimal Inhibitory Concentration P ([3]; P. aeruginosa strain ATCC 27853, Table I)
CC[C@H](C)[C@H](NC(=O)[C@H](CCCCNC(=N)N)NC(=O)CNC(=O)[C@H](C)NC(=O)[C@@H](NC(=O)[C@H](CCCCNC(=N)N)NC(=O)[C@H](C)NC(=O)[C@@H](NC(=O)[C@H](CCCCNC(=N)N)NC(=O)CNC(=O)[C@H](C)NC(=O)[C@@H](NC(=O)[C@H](CCCCNC(=N)N)NC(=O)[C@H](C)NC(=O)[C@@H](NC(=O)[C@H](CCCCNC(=N)N)NC(=O)CNC(=O)[C@H](C)NC(=O)[C@@H](NC(=O)[C@@H](N)CCCCNC(=N)N)[C@@H](C)CC)[C@@H](C)CC)[C@@H](C)CC)[C@@H](C)CC)[C@@H](C)CC)C(=O)N[C@@H](C)C(N)=O [(SEQ ID NO: 66)-NH2, (Har Ile Ala Gly Har Ile Ala)3] (H-[hArg]IAG[hArg]IA[hArg]IAG[hArg]IA[hArg]IAG[hArg]IA-NH2) | 2 μl/ml | 16 | 4 | 4 | 8 μl/ml | 32 | 32 | 8 | 64 | 8 | 
CCCCCCCC(=O)N[C@@H](CCCCN)C(=O)N[C@H](C(=O)N[C@@H](C)C(=O)NCC(=O)N[C@@H](CCCCN)C(=O)N[C@H](C(=O)N[C@@H](C)C(=O)N[C@@H](CCCCN)C(=O)N[C@H](C(=O)N[C@@H](C)C(=O)NCC(=O)N[C@@H](CCCCN)C(=O)N[C@H](C(=O)N[C@@H](C)C(=O)N[C@@H](CCCCN)C(=O)N[C@H](C(=O)N[C@@H](C)C(=O)NCC(=O)N[C@@H](CCCCN)C(=O)N[C@H](C(=O)N[C@@H](C)C(=O)O)[C@@H](C)CC)[C@@H](C)CC)[C@@H](C)CC)[C@@H](C)CC)[C@@H](C)CC)[C@@H](C)CC [Oct-(SEQ ID NO: 27)-OH] (Octanoyl-KIAGKIAKIAGKIAKIAGKIA-OH) | 2 μl/ml | 2 | 1 | 1 | 2 μl/ml | 4 | 8 | 16 | 32 | 32 | 
CCCCCCCC(=O)N[C@@H](CC(C)C)C(=O)N[C@@H](CCCN)C(=O)N[C@@H](CCCN)C(=O)N[C@@H](CC(C)C)C(=O)N[C@@H](CC(C)C)C(=O)N[C@@H](CCCN)C(=O)N[C@@H](CCCN)C(=O)N[C@@H](CC(C)C)C(=O)N[C@@H](CCCN)C(=O)N[C@@H](CCCN)C(=O)N[C@@H](CC(C)C)C(N)=O [Oct-(SEQ ID NO: 142)-NH2] (Octanoyl-L[Orn][Orn]LL[Orn][Orn]L[Orn][Orn]L-NH2) |  |  |  |  |  | 8 | 2 |  | 32 |  | 
CCCCCCCC(=O)N[C@@H](CCCN)C(=O)N[C@@H](CCCN)C(=O)N[C@@H](CC(C)C)C(=O)N[C@@H](CC(C)C)C(=O)N[C@@H](CCCN)C(=O)N[C@@H](CCC(N)=O)C(=O)N[C@@H](CC(C)C)C(=O)N[C@@H](CCCN)C(=O)N[C@@H](CCCN)C(=O)N[C@@H](CC(C)C)C(N)=O [Oct-(SEQ ID NO: 144)-NH2] (Octanoyl-[Orn][Orn]LL[Orn]QL[Orn][Orn]L-NH2) |  |  |  |  |  | 16 | 4 |  | 32 |  | 
CCCCCCCC(=O)N[C@@H](CCCNC(=N)N)C(=O)N[C@@H](CC(C)C)C(=O)N[C@@H](CC(C)C)C(=O)N[C@@H](CCCNC(=N)N)C(=O)N[C@@H](CCCNC(=N)N)C(=O)N[C@@H](CC(C)C)C(=O)N[C@@H](CCCNC(=N)N)C(=O)N[C@@H](CCCNC(=N)N)C(=O)N[C@@H](CC(C)C)C(N)=O [Oct-(SEQ ID NO: 145)-NH2] (Octanoyl-RLLRRLRRL-NH2) |  |  |  |  |  | 16 | 8 |  | 64 |  | 
CCCCCCCC(=O)N[C@H](C(=O)N[C@@H](CCCCN)C(=O)N[C@@H](CCCCN)C(=O)N[C@@H](CC(C)C)C(=O)N[C@@H](CC(C)C)C(=O)N[C@@H](CCCCN)C(=O)N[C@@H](CCCCN)C(=O)N[C@@H](CC(C)C)C(=O)N[C@@H](CCCCN)C(=O)N[C@@H](CCCCN)C(=O)N[C@@H](CC(C)C)C(N)=O)C(C)C [Oct-(SEQ ID NO: 146)-NH2] (Octanoyl-VKKLLKKLKKL-NH2) |  |  |  |  |  | 16 | 4 |  | 32 |  | 
CCCCCCCC(=O)N[C@@H](CCCCN)C(=O)N[C@@H](CCCCN)C(=O)N[C@@H](CC(C)C)C(=O)N[C@@H](CC(C)C)C(=O)N[C@@H](CCCCN)C(=O)N[C@@H](CCCCN)C(=O)N[C@@H](CC(C)C)C(=O)N[C@@H](CCCCN)C(=O)N[C@@H](CCCCN)C(=O)N[C@@H](CC(C)C)C(=O)N[C@@H](CC(C)C)C(=O)N[C@@H](CCCCN)C(=O)N[C@@H](CCCCN)C(=O)N[C@@H](CC(C)C)C(N)=O [Oct-(SEQ ID NO: 147)-NH2] (Octanoyl-KKLLKKLKKLLKKL-NH2) |  |  |  |  |  | 32 | 32 |  | 128 |  | 
CCCCCCCC(=O)N[C@@H](CCCCN)C(=O)N[C@@H](CC(C)C)C(=O)N[C@@H](CCCCN)C(=O)N[C@@H](CCCCN)C(=O)N[C@@H](CC(C)C)C(=O)N[C@@H](CCCCN)C(=O)N[C@@H](CCCCN)C(=O)N[C@@H](CC(C)C)C(=O)N[C@@H](Cc1ccccc1)C(=O)N[C@@H](CCCCN)C(N)=O [Oct-(SEQ ID NO: 148)-NH2] (Octanoyl-KLKKLKKLFK-NH2) |  |  |  |  |  | 32 | 8 |  | 128 |  | 
CCCCCCCC(=O)NCC(=O)N[C@H](C(=O)N[C@@H](CCCCN)C(=O)N[C@@H](CCCCN)C(=O)N[C@@H](Cc1ccccc1)C(=O)N[C@@H](CC(C)C)C(=O)N[C@@H](CCCCN)C(=O)N[C@@H](CCCCN)C(=O)N[C@@H](C)C(=O)NCC(=O)N[C@@H](CCCCN)C(=O)N[C@@H](Cc1ccccc1)C(=O)NCC(=O)N[C@@H](CCCCN)C(=O)N[C@@H](C)C(=O)N[C@@H](Cc1ccccc1)C(N)=O)[C@@H](C)CC [Oct-(SEQ ID NO: 149)-NH2] (Octanoyl-GIKKFLKKAGKFGKAF-NH2) |  |  |  |  |  | 32 | 16 |  | 126 |  | 
CCCCCCCC(=O)N[C@H](CC(C)C)C(=O)N[C@H](CCCCN)C(=O)N[C@H](CCCCN)C(=O)N[C@H](CC(C)C)C(=O)N[C@H](CC(C)C)C(=O)N[C@H](CCCCN)C(=O)N[C@H](CCCCN)C(=O)N[C@H](CC(C)C)C(=O)N[C@H](CCCCN)C(=O)N[C@H](CCCCN)C(=O)N[C@H](CC(C)C)C(N)=O [Oct-D-(SEQ ID NO: 110)-NH2] (Octanoyl-[dL][dK][dK][dL][dL][dK][dK][dL][dK][dK][dL]-NH2) |  |  |  |  |  | 16 | 4 |  | 32 |  | 
CC[C@H](C)[C@H](NC(=O)[C@H](CCCCN)NC(=O)CNC(=O)[C@H](C)NC(=O)[C@@H](NC(=O)[C@H](CCCCN)NC(=O)[C@H](C)NC(=O)[C@@H](NC(=O)[C@H](CCCCN)NC(=O)CNC(=O)[C@H](C)NC(=O)[C@@H](NC(=O)[C@H](CCCCN)NC(=O)[C@H](C)NC(=O)[C@@H](NC(=O)[C@H](CCCCN)NC(=O)CNC(=O)[C@H](C)NC(=O)[C@@H](NC(=O)[C@H](CCCCN)NC(=O)CCC(=O)O)[C@@H](C)CC)[C@@H](C)CC)[C@@H](C)CC)[C@@H](C)CC)[C@@H](C)CC)C(=O)N[C@@H](C)C(N)=O [Suc-((SEQ ID NO: 27)-NH2] (Suc-KIAGKIAKIAGKIAKIAGKIA-NH2) |  |  |  |  |  | 32 | >256 |  | 128 |  | 
CCCCC(=O)N[C@@H](CC(C)C)C(=O)N[C@@H](CCCCN)C(=O)N[C@@H](CCCCN)C(=O)N[C@@H](CC(C)C)C(=O)N[C@@H](CC(C)C)C(=O)N[C@@H](CCCCN)C(=O)N[C@@H](CCCCN)C(=O)N[C@@H](CC(C)C)C(=O)N[C@@H](CCCCN)C(=O)N[C@@H](CCCCN)C(=O)N[C@@H](CC(C)C)C(N)=O [Val-(SEQ ID NO: 110)-NH2] (Pentanoyl-LKKLLKKLKKL-NH2) |  |  |  |  |  | 32 | 8 |  | 32 |  | 
(Lys Ile Ala Lys Lys Ile Ala)3 (KIAKKIAKIAKKIAKIAKKIA-NH2) [(SEQ ID NO. 86)-NH2, unsubstituted at the N-terminal, C-terminal amide] | 8 μl/ml | 8 | 4 | 2 | 8,128 μl/ml |  |  | 4 |  | 16 | 
H-GIKKFLKKAGKFGKAF-NH2 [(SEQ ID NO: 149)-NH2] |  |  |  |  |  | 32 | 32 |  | 64 |  | 
H-KIAGKIAKIAGKIAKIAGKIA-NH2 [(SEQ ID NO: 27)-NH2, (Lys Ile Ala Gly Lys Ile Ala)3] | 8,128 μl/ml | 128 | 4 | 16 | 64 μl/ml | 8 |  | 16 |  | 16 | 64,128 μg/ml
